Reference: patent US20220119354A1, “DIAMINO-SUBSTITUTED PYRIDINES AND PYRIMIDINES AS HERBICIDES” (FMC Corporation, priority 2019, published 2022)

What was measured:
Assay type in all cases: in vivo
kochia (Kochia scoparia) [1] = assay: Test A preemergence, kochia; conditions: 0 to 100 scale
Summary of the method: (§1)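 Ratings reflect visual comparison with untreated controls roughly 10 d after greenhouse application, 0 meaning no effect and 100 complete control. Treatment was by directed soil spray at planting or by spray onto one- to two-leaf plants in loam/sand pots.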

[2] = system: galium (catchweed bedstraw, Galium aparine); assay: Test A postemergence, galium; conditions: 0 to 100 scale
Summary of the method: as §1

[3] = system: ragweed (common ragweed, Ambrosia elatior); assay: Test A preemergence, ragweed; conditions: 0 to 100 scale
Summary of the method: as §1

[4] = system: pigweed (Amaranthus retroflexus); assay: Test A postemergence, pigweed; conditions: 0 to 100 scale
Summary of the method: as §1

[5] = system: ragweed (common ragweed, Ambrosia elatior); assay: Test A postemergence, ragweed; conditions: 0 to 100 scale
Summary of the method: as §1

rice (Oryza sativa) = assay: Test B flooded paddy test, rice; conditions: Flood, 250 g ai/ha, applied to paddy water, 2-leaf stage, visual evaluation after 13 to 15 d
Summary of the method: (§2)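 Rating: 0 = no effect, 100 = complete control, visual, relative to untreated plants. Conditions: 2-leaf stage, 3 cm flood kept constant, compound put directly into water, 13–15 d greenhouse.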

kochia (Kochia scoparia) [6] = assay: Test A postemergence, kochia; conditions: 0 to 100 scale
Summary of the method: as §1

[7] = system: foxtail, giant (Setaria faberii); assay: Test A preemergence, giant foxtail; conditions: 0 to 100 scale
Summary of the method: as §1

[8] = system: ryegrass, Italian (Lolium multiflorum); assay: Test A preemergence, Italian ryegrass; conditions: 0 to 100 scale
Summary of the method: as §1

[9] = system: barnyardgrass (Echinochloa crus-galli); assay: Test A postemergence, barnyardgrass; conditions: 0 to 100 scale
Summary of the method: as §1

[10] = system: ryegrass, Italian (Lolium multiflorum); assay: Test A postemergence, Italian ryegrass; conditions: 0 to 100 scale
Summary of the method: as §1

[11] = system: pigweed (Amaranthus retroflexus); assay: Test A preemergence, pigweed; conditions: 0 to 100 scale
Summary of the method: as §1

[12] = system: sedge, umbrella (small-flower umbrella sedge, Cyperus difformis); assay: Test B flooded paddy test, umbrella sedge; conditions: Flood, 250 g ai/ha, applied to paddy water, 2-leaf stage, visual evaluation after 13 to 15 d
Summary of the method: as §2

corn (Zea mays) = assay: Test A postemergence, corn; conditions: 0 to 100 scale
Summary of the method: as §1

[13] = system: blackgrass (Alopecurus myosuroides); assay: Test A postemergence, blackgrass; conditions: 0 to 100 scale
Summary of the method: as §1

[14] = system: ducksalad (Heteranthera limosa); assay: Test B flooded paddy test, ducksalad; conditions: Flood, 250 g ai/ha, applied to paddy water, 2-leaf stage, visual evaluation after 13 to 15 d
Summary of the method: as §2

[15] = system: barnyardgrass (Echinochloa crus-galli); assay: Test A preemergence, barnyardgrass; conditions: 0 to 100 scale
Summary of the method: as §1

[16] = system: barnyardgrass (Echinochloa crus-galli); assay: Test B flooded paddy test, barnyardgrass; conditions: Flood, 250 g ai/ha, applied to paddy water, 2-leaf stage, visual evaluation after 13 to 15 d
Summary of the method: as §2

[17] = system: wheat (Triticum aestivum); assay: Test A postemergence, wheat; conditions: 0 to 100 scale
Summary of the method: as §1

[18] = system: foxtail, giant (Setaria faberii); assay: Test A postemergence, giant foxtail; conditions: 0 to 100 scale
Summary of the method: as §1

Cc1cc2cc([C@@H](C)Nc3ncc(C(F)(F)F)c(N)n3)oc2cc1C [Compound 11]
Plant response rating, Kochia (kochia (Kochia scoparia) [1]; 125 g ai/ha): 0
Plant response rating, Kochia (kochia (Kochia scoparia) [1]; 500 g ai/ha): 10
Plant response rating, Galium ([2]; 125 g ai/ha): 50
Plant response rating, Galium ([2]; 500 g ai/ha): 70
Plant response rating, Ragweed ([3]; 125 g ai/ha): 0
Plant response rating, Ragweed ([3]; 500 g ai/ha): 90
Plant response rating, Pigweed ([4]; 125 g ai/ha): 80
Plant response rating, Pigweed ([4]; 500 g ai/ha): 80
Plant response rating, Ragweed ([5]; 125 g ai/ha): 40
Plant response rating, Ragweed ([5]; 500 g ai/ha): 80
Plant response rating, Rice (0 to 100 scale, 0 is no effect, 100 is complete control) (rice (Oryza sativa)): 0
Plant response rating, Kochia (kochia (Kochia scoparia) [6]; 125 g ai/ha): 30
Plant response rating, Kochia (kochia (Kochia scoparia) [6]; 500 g ai/ha): 70
Plant response rating, Foxtail, Giant ([7]; 125 g ai/ha): 40
Plant response rating, Foxtail, Giant ([7]; 500 g ai/ha): 80
Plant response rating, Ryegrass, Italian ([8]; 125 g ai/ha): 20
Plant response rating, Ryegrass, Italian ([8]; 500 g ai/ha): 30
Plant response rating, Barnyardgrass ([9]; 125 g ai/ha): 20
Plant response rating, Barnyardgrass ([9]; 500 g ai/ha): 30
Plant response rating, Ryegrass, Italian ([10]; 125 g ai/ha): 0
Plant response rating, Ryegrass, Italian ([10]; 500 g ai/ha): 0
Plant response rating, Pigweed ([11]; 125 g ai/ha): 20
Plant response rating, Pigweed ([11]; 500 g ai/ha): 100
Plant response rating, Sedge, Umbrella (0 to 100 scale, 0 is no effect, 100 is complete control) [12]: 0
Plant response rating, Corn (corn (Zea mays); 125 g ai/ha): 40
Plant response rating, Corn (corn (Zea mays); 500 g ai/ha): 0
Plant response rating, Blackgrass ([13]; 125 g ai/ha): 0
Plant response rating, Blackgrass ([13]; 500 g ai/ha): 20
Plant response rating, Ducksalad (0 to 100 scale, 0 is no effect, 100 is complete control) [14]: 0
Plant response rating, Barnyardgrass ([15]; 125 g ai/ha): 20
Plant response rating, Barnyardgrass ([15]; 500 g ai/ha): 70
Plant response rating, Barnyardgrass (0 to 100 scale, 0 is no effect, 100 is complete control) [16]: 0
Plant response rating, Wheat ([17]; 125 g ai/ha): 0
Plant response rating, Wheat ([17]; 500 g ai/ha): 0
Plant response rating, Foxtail, Giant ([18]; 125 g ai/ha): 0
Plant response rating, Foxtail, Giant ([18]; 500 g ai/ha): 50

C[C@@H](Nc1ncc(C(F)(F)F)c(N)n1)C1Cc2ccccc2C1 [Compound 13, N2-[(1R)-1-(2,3-dihydro-1H-inden-2-yl)ethyl]-5-(trifluoromethyl)-2,4-pyrimidinediamine]
Plant response rating, Kochia (kochia (Kochia scoparia) [1]; 125 g ai/ha): 100
Plant response rating, Kochia (kochia (Kochia scoparia) [1]; 500 g ai/ha): 100
pest or weed control at 125 g/ha ([2]; Galium, post-emergence, 240 h, 125 g ai/ha, read-out: Plant response rating, Galium): 80%
pest or weed control at 500 g/ha ([2]; Galium, post-emergence, 240 h, 500 g ai/ha, read-out: Plant response rating, Galium): 80%
Plant response rating, Ragweed ([3]; 125 g ai/ha): 100
Plant response rating, Ragweed ([3]; 500 g ai/ha): 100
pest or weed control at 125 g/ha ([4]; Amaranthus retroflexus, post-emergence, 240 h, 125 g ai/ha, read-out: Plant response rating, Pigweed): 100%
pest or weed control at 500 g/ha ([4]; Amaranthus retroflexus, post-emergence, 240 h, 500 g ai/ha, read-out: Plant response rating, Pigweed): 100%
pest or weed control at 125 g/ha ([5]; Ambrosia artemisiifolia, post-emergence, 240 h, 125 g ai/ha, read-out: Plant response rating, Ragweed): 30%
pest or weed control at 500 g/ha ([5]; Ambrosia artemisiifolia, post-emergence, 240 h, 500 g ai/ha, read-out: Plant response rating, Ragweed): 80%
plant injury at 250 g/ha (rice (Oryza sativa); Oryza sativa, 360 h, read-out: Plant response rating, Rice (0 to 100 scale, 0 is no effect, 100 is complete control)): 10%
pest or weed control at 125 g/ha (kochia (Kochia scoparia) [6]; Bassia scoparia, post-emergence, 240 h, 125 g ai/ha, read-out: Plant response rating, Kochia): 90%
pest or weed control at 500 g/ha (kochia (Kochia scoparia) [6]; Bassia scoparia, post-emergence, 240 h, 500 g ai/ha, read-out: Plant response rating, Kochia): 100%
Plant response rating, Foxtail, Giant ([7]; 125 g ai/ha): 100
Plant response rating, Foxtail, Giant ([7]; 500 g ai/ha): 100
Plant response rating, Ryegrass, Italian ([8]; 125 g ai/ha): 60
Plant response rating, Ryegrass, Italian ([8]; 500 g ai/ha): 100
pest or weed control at 125 g/ha ([9]; Echinochloa crus-galli, post-emergence, 240 h, 125 g ai/ha, read-out: Plant response rating, Barnyardgrass): 30%
pest or weed control at 500 g/ha ([9]; Echinochloa crus-galli, post-emergence, 240 h, 500 g ai/ha, read-out: Plant response rating, Barnyardgrass): 60%
pest or weed control at 125 g/ha ([10]; Lolium multiflorum, post-emergence, 240 h, 125 g ai/ha, read-out: Plant response rating, Ryegrass, Italian): 0%
pest or weed control at 500 g/ha ([10]; Lolium multiflorum, post-emergence, 240 h, 500 g ai/ha, read-out: Plant response rating, Ryegrass, Italian): 20%
Plant response rating, Pigweed ([11]; 125 g ai/ha): 100
Plant response rating, Pigweed ([11]; 500 g ai/ha): 100
pest or weed control at 250 g/ha ([12]; Cyperus difformis, 360 h, read-out: Plant response rating, Sedge, Umbrella (0 to 100 scale, 0 is no effect, 100 is complete control)): 95%
Corn plant response rating (crop injury, 0 = no effect, 100 = complete kill) at 125 g/ha (corn (Zea mays); Zea mays, post-emergence, 240 h, 125 g ai/ha): 10%
Corn plant response rating (crop injury, 0 = no effect, 100 = complete kill) at 500 g/ha (corn (Zea mays); Zea mays, post-emergence, 240 h, 500 g ai/ha): 60%
pest or weed control at 125 g/ha ([13]; Alopecurus myosuroides, post-emergence, 240 h, 125 g ai/ha, read-out: Plant response rating, Blackgrass): 10%
pest or weed control at 500 g/ha ([13]; Alopecurus myosuroides, post-emergence, 240 h, 500 g ai/ha, read-out: Plant response rating, Blackgrass): 30%
pest or weed control at 250 g/ha ([14]; Heteranthera limosa, 360 h, read-out: Plant response rating, Ducksalad (0 to 100 scale, 0 is no effect, 100 is complete control)): 75%
Plant response rating, Barnyardgrass ([15]; 125 g ai/ha): 90
Plant response rating, Barnyardgrass ([15]; 500 g ai/ha): 100
pest or weed control at 250 g/ha ([16]; Echinochloa crus-galli, 360 h, read-out: Plant response rating, Barnyardgrass (0 to 100 scale, 0 is no effect, 100 is complete control)): 90%
plant injury at 125 g/ha ([17]; Triticum aestivum, post-emergence, 240 h, 125 g ai/ha, read-out: Plant response rating, Wheat): 0%
plant injury at 500 g/ha ([17]; Triticum aestivum, post-emergence, 240 h, 500 g ai/ha, read-out: Plant response rating, Wheat): 20%
pest or weed control at 125 g/ha ([18]; Setaria faberi, post-emergence, 240 h, 125 g ai/ha, read-out: Plant response rating, Foxtail, Giant): 80%
pest or weed control at 500 g/ha ([18]; Setaria faberi, post-emergence, 240 h, 500 g ai/ha, read-out: Plant response rating, Foxtail, Giant): 100%

Cc1ccc2cc([C@@H](C)Nc3ncc(C(F)(F)F)c(N)n3)oc2c1 [Compound 14]
Plant response rating, Kochia (kochia (Kochia scoparia) [1]; 125 g ai/ha): 60
Plant response rating, Kochia (kochia (Kochia scoparia) [1]; 500 g ai/ha): 90
Plant response rating, Galium ([2]; 125 g ai/ha): 80
Plant response rating, Galium ([2]; 500 g ai/ha): 80
Plant response rating, Ragweed ([3]; 125 g ai/ha): 100
Plant response rating, Ragweed ([3]; 500 g ai/ha): 100
Plant response rating, Pigweed ([4]; 125 g ai/ha): 90
Plant response rating, Pigweed ([4]; 500 g ai/ha): 90
Plant response rating, Ragweed ([5]; 125 g ai/ha): 0
Plant response rating, Ragweed ([5]; 500 g ai/ha): 70
Plant response rating, Rice (0 to 100 scale, 0 is no effect, 100 is complete control) (rice (Oryza sativa)): 0
Plant response rating, Kochia (kochia (Kochia scoparia) [6]; 125 g ai/ha): 90
Plant response rating, Kochia (kochia (Kochia scoparia) [6]; 500 g ai/ha): 90
Plant response rating, Foxtail, Giant ([7]; 125 g ai/ha): 90
Plant response rating, Foxtail, Giant ([7]; 500 g ai/ha): 100
Plant response rating, Ryegrass, Italian ([8]; 125 g ai/ha): 0
Plant response rating, Ryegrass, Italian ([8]; 500 g ai/ha): 60
Plant response rating, Barnyardgrass ([9]; 125 g ai/ha): 10
Plant response rating, Barnyardgrass ([9]; 500 g ai/ha): 40
Plant response rating, Ryegrass, Italian ([10]; 125 g ai/ha): 0
Plant response rating, Ryegrass, Italian ([10]; 500 g ai/ha): 0
Plant response rating, Pigweed ([11]; 125 g ai/ha): 90
Plant response rating, Pigweed ([11]; 500 g ai/ha): 100
Plant response rating, Sedge, Umbrella (0 to 100 scale, 0 is no effect, 100 is complete control) [12]: 0
Plant response rating, Corn (corn (Zea mays); 125 g ai/ha): 10
Plant response rating, Corn (corn (Zea mays); 500 g ai/ha): 10
Plant response rating, Blackgrass ([13]; 125 g ai/ha): 30
Plant response rating, Blackgrass ([13]; 500 g ai/ha): 30
Plant response rating, Ducksalad (0 to 100 scale, 0 is no effect, 100 is complete control) [14]: 0
Plant response rating, Barnyardgrass ([15]; 125 g ai/ha): 90
Plant response rating, Barnyardgrass ([15]; 500 g ai/ha): 100
Plant response rating, Barnyardgrass (0 to 100 scale, 0 is no effect, 100 is complete control) [16]: 0
Plant response rating, Wheat ([17]; 125 g ai/ha): 0
Plant response rating, Wheat ([17]; 500 g ai/ha): 0
Plant response rating, Foxtail, Giant ([18]; 125 g ai/ha): 10
Plant response rating, Foxtail, Giant ([18]; 500 g ai/ha): 90
